Source: patent US8436016B2, “Fused heterocyclic M1 receptor positive allosteric modulators” (priority 2008, dated 2013)
Where two headings read alike, the source gives them in different places.

Molecular target: T1, acetylcholine muscarinic M1 receptor (Homo sapiens, UniProt P11229)
T1 construct: expressed in transfected cells; host or cells: CHOnfat (CHO cells with an NFAT reporter background) expressing hM1, kept under Geneticin selection
T1 sequence (P11229 1-460): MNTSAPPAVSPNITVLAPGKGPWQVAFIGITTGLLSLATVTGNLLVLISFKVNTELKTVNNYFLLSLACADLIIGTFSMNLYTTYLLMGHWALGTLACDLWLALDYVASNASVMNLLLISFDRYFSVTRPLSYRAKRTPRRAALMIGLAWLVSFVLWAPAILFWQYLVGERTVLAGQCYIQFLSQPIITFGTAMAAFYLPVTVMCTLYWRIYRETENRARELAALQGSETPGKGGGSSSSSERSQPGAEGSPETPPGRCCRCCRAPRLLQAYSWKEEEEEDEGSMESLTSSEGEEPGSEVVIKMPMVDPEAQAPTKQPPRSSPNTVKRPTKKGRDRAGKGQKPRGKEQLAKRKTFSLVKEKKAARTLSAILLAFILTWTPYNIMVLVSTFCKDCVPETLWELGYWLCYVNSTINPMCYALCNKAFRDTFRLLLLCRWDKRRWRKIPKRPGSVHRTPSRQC
Test: muscarinic FLIPR assay: potentiation of acetylcholine (EC20)-stimulated intracellular Ca2+ in CHOnfat/hM1 cells
Format: cell-based
Method: The assay studies the effect of one or several concentrations of test compounds on basal or acetylcholine-stimulated Ca^2+ levels using FLIPR.
Compounds are prepared and subjected to a preincubation period of 4 min. Thereafter, a single EC20 concentration of acetylcholine is added to each well (3 nM final). The intracellular Ca^2+ level of each sample is measured and compared to an acetylcholine control to determine any modulatory activity.
Cells: CHOnfat/hM1, hM2, hM3 or hM4 cells are plated 24 hr before the assay at a density of 18,000 cells/well (100 μL) in a 384 well plate. CHOnfat/hM1 and CHOnfat/hM3 Growth Medium: 90% DMEM (Hi Glucose); 10% HI FBS; 2 mM L-glutamine; 0.1 mM NEAA; Pen-Strep; and 1 mg/ml Geneticin, are added. For M2Gqi5CHOnfat and M4Gqi5CHOnfat cells, an additional 600 μg/ml hygromycin is added.
Buffers. […] Dye Loading Buffer: Assay Buffer plus 1% Fetal Bovine Serum and Fluo-4AM/Pluronic Acid Mixture. […] 20% Pluronic Acid Solution stock, with a concentration of 0.04% in Buffer, 0.02% in Assay.
65 μL of 2 mM Fluo-4AM are mixed with 130 μL of 20% Pluronic Acid. The resulting solution and 650 μL FBS is added to the assay buffer for a total volume of 65 mL. Positive Controls: 4-Br-A23187: 10 mM in DMSO; final concentration 10 μM. Acetylcholine: 10 mM in water, working stock at both 20 μM and 30 μM in assay buffer, final concentration of 10 μM. This is used to check the maximum stimulation of the CHOK1/hM1 cells. 20 μM (2×) acetylcholine is added in the preincubation part of the assay, and the 30 μM (3×) stock is added in the second part. (EC20)Acetylcholine: 10 mM in water, working stock of 9 nM (3×), and final concentration in assay is 3 nM. This is used after the preincubation with test compounds. Addition of the EC20 Acetylcholine to each well with a test compound will ascertain any modulator activity. 24 wells contain 3 nM Acetylcholine alone as a control.
Determining Activity of Putative Compounds:
Four 96-well plates are combined into a 384-well plate using Mosquito Nanolitre Pipetting System by transferring 1 μl of serial diluted compounds to each well, and 1 mM acetylcholine (100× stock concentration) were added as a control. Using Term, 49 μl assay buffer is added to each well of the 384-well plate right before assay.
In a 96-well Whatman 2 ml Uniplate, 9 nM Acetylcholine (3×) is pipetted into wells corresponding to the screening compounds and into control wells. The 30 μM acetylcholine control (3×) is added into control wells and the 3× agonist plate is transferred into a 384-well plate.
Cells are washed three times with 100 μL of buffer, leaving 30 μL of buffer in each well. Using Multimek, 30 μL of Dye Loading Buffer is added into each well and incubated at 37° C., 5% CO2 for up to one hr.
After 60 min, the cells are washed three times with 100 μL of buffer, leaving 30 μL of buffer in each well. The cell plate, screening plate, and agonist addition plates are placed on the platform in the FLIPR and the door is closed. A signal test to check background fluorescence and basal fluorescence signal is performed. Laser intensity is adjusted if necessary.
4 min of preincubation with the test compounds is provided to determine any agonist activity on the M1 receptor by comparison to the 1 mM acetylcholine control. After preincubation, the EC20 value of acetylcholine (3 nM final) is added to determine any modulator activity.
The inflection point is calculated from the FLIPR values, and is a measure of activity.

[1] = CHOnfat/hM1 cells, FLIPR, 4 min preincubation, then EC20 acetylcholine (3 nM final), read-out: IP Value (inflection point)

SMILES | EC50 [nM] | EC50 [1] [nM]
Cn1ncc2cc(Cn3cc(C(=O)O)c(=O)c4c(F)cccc43)ccc21 [Example 1, 5-Fluoro-1-[(1-methyl-1H-indazol-5-yl)methyl]-4-oxo-1,4-dihydroquinoline-3-carboxylic acid] | 72 | 
O=C(O)c1cn(Cc2ccc3cc(F)ccc3c2)c2cccc(F)c2c1=O [Example 3, 5-Fluoro-1-[(6-fluoro-2-naphthyl)methyl]-4-oxo-1,4-dihydroquinoline-3-carboxylic acid] |  | 261
O=C(O)c1cn(Cc2ccc3ccccc3c2)c2c(F)cccc2c1=O [Example 4] | 80 | 
O=C(O)c1cn(Cc2ccc3[nH]ccc3c2)c2cccc(F)c2c1=O [Example 33] | 93 | 
O=C(O)c1cn(Cc2cc3ccccc3[nH]2)c2cccc(F)c2c1=O [Example 58] | 656 | 

Now from value to molecule:

EC50 [nM] | EC50 [1] [nM] | SMILES
 | 501 | O=C(O)c1cn(Cc2ccc3nccnc3c2)c2cccc(F)c2c1=O [Example 15]
29 |  | O=C(O)c1cn(Cc2ccc3c(c2)OCCO3)c2cccc(F)c2c1=O [Example 27]
 | 229 | O=C(O)c1cn(Cc2ccc3[nH]cnc3c2)c2cccc(F)c2c1=O [Example 42]
38 |  | O=C1Cc2cc(Cn3cc(C(=O)O)c(=O)c4c(F)cccc43)ccc2N1 [Example 53]
 | 147 | O=C(O)c1cn(Cc2cc3ccccc3s2)c2cccc(F)c2c1=O [Example 56]
 | 1300 | O=C(O)c1cn(Cc2cccc3ccncc23)c2cccc(F)c2c1=O [Example 73]
